In patent US20250161399A1, “TARGETING SLC46A2-MEDIATED MUROPEPTIDE TRANSPORT TO TREAT PSORIASIS” (University of Massachusetts, priority 2021, published 2025):
“Also recorded” adds a separate entry of the source.

Assays:
[1] = test system: primary mouse keratinocytes; experiment: cytokine ELISAs from primary keratinocyte culture media; assay type: cell-based
Protocol: Adult (6-8 weeks) mouse keratinocytes were isolated from male or female animals using protocols described previously (57). In brief, tail skin was incubated in 1 mg/ml Dispase II (Roche) overnight at 4° C. The epidermis was physically removed from the dermis with tweezers following Dispase II treatment, subsequently digested with TrypLE (Thermo) for 20 min at room temperature, and keratinocytes were detached by vigorously shaking in EpiLife culture medium and filtered with a 70 μm strainer (Fisher scientific). Isolated cells were seeded at a density of 10^5 cells/cm^2 cultured with EpiLife (Gibco) in 12-well plates precoated with coating matrix (Gibco) and used between 3 and 5 days after isolation.
For cytokine ELISAs, primary keratinocytes were either mock-treated or treated with 8 μM TCT or 30 μM iE-DAP for 24 h Culture medium was harvested and centrifuged at 500 g for 15 mins and analyzed using ELISA kits detecting CXCL1 (KC), IL-6, TNF-α, IL-1α and IL-1β (R&D systems) following the manufacturer's protocols. In brief, 96-well ELISA plates were coated with capture antibody overnight at room temperature. The next day, the plate was washed three times with wash buffer and incubated with harvested media (100 μl) for 2 h followed by three washes and then probed with biotin-labelled detection antibody for 2 h. After three washes with wash buffer, plates were incubated with HRP-streptavidin for 20 min at room temperature (RT), developed with TMB (3,3′,5,5″-tetramethylbenzidine) substrate for 20 min at RT, and then stopped with IN sulfuric acid. Plate was analyzed at 450 nm with wavelength correction at 540 nm.

Slc46a2 = biological target: T1, Slc46a2 (Mus musculus, UniProt Q8CA03); experiment: click-muropeptide uptake into keratinocytes (CalFluor 488 Azide, confocal imaging and lysate fluorescence); assay type: cell-based; conditions: WT or Nod1−/− keratinocytes, 30 μM click-iE-DAP; MTX 250 μM or unlabeled iE-DAP 30 μM
T1 construct: primary mouse keratinocytes, which express Slc46a2 and Nod1; endogenous in cells; host or cells: primary mouse epidermal keratinocytes (WT or Nod1-/-; Slc46a2-/- cells served as the negative control)
T1 sequence (Q8CA03 1-479): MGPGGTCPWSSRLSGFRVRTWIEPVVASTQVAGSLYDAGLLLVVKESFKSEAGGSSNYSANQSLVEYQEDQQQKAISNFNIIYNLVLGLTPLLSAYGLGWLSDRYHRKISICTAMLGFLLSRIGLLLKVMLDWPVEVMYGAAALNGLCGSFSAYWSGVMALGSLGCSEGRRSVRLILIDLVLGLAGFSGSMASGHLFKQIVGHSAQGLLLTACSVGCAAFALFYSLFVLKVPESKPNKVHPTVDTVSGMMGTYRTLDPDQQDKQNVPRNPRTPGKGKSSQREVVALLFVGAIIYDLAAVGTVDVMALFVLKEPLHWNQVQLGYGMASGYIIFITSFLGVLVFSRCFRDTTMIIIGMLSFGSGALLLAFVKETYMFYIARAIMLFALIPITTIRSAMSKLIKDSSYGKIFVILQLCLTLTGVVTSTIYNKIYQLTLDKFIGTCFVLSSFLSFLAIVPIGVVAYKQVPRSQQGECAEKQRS
Protocol: For visualization, mouse keratinocytes were challenged with click-iE-DAP (30 μM) or click-MDP (20 μM) 37° C. for 30-60 min, cells washed 2× with 1×PBS to remove access of click-muropeptides and fixed with 4% paraformaldehyde in PBS at RT for 10 min. Cells were permeabilized with 1% Triton-X in PBS for 10 min at RT and blocked with 1% BSA in PBS. These permeabilized cells were then incubated in click-reaction conditions (250 μM CuSO4, 35 μM BTAA, 60 μM sodium ascorbate) with 2.5 μM CalFluor 488 Azide at RT for 30 mins. Cells were then washed and mounted on slides, with DAPI containing mounting media. Slides were imaged with a Leica SP8 confocal microscope.

[2] = test system: mouse skin (NOD1/NOD2 response); experiment: neutrophil recruitment to pinnae after intradermal injection; assay type: in vivo; conditions: TCT 8 μM, iE-DAP 30 μM
Protocol: […] After 3 h, both ears were individually harvested, and stored in ice cold PBS on ice until further processing for flow cytometry staining.
Pinnae were cut into small pieces and incubated for 30 min at 37° C. in a solution of 1 mg/ml collagenase (Sigma) in DMEM media containing 10% FBS. Ice-cold FACS buffer (2% FBS in PBS) was added to skin samples to stop the reaction. Then samples were placed on 70 μm cell strainers and ground using a cell strainer pestle to create a single cell suspension. Cells were spun at 180 g for 5 min at 4° C. and resuspended in FACS buffer.
(§1) 1×10^6 cells were stained with F4/80-PE/Cy7 (1:200), CD45-alexaflour700 (1:200) and Gr1-PE (1:200) for 30 min on ice in the dark. Samples were washed three times with FACS buffer and analyzed with a Cytek Aurora cytometer. Results were analyzed with FlowJo software (Tree Star, USA).

[3] = test system: mouse peritoneum (NOD1/NOD2 response); experiment: neutrophil recruitment to the peritoneum after intraperitoneal injection; assay type: in vivo; conditions: 3 h, iE-DAP 30 μM, MDP 10 μM
Protocol: For peritoneal cell extraction, animals were euthanized and cells from peritoneal cavity were isolated by peritoneal lavage (58). Harvested cell suspensions were centrifuged at 300 g for 5 min at 4° C. and resuspended in FACS buffer.
as §1

tape stripped mouse skin = experiment: neutrophil recruitment after topical application to tape stripped skin; assay type: in vivo; conditions: topical 10 μl of 30 μM iE-DAP on tape stripped skin, 3 h
Protocol: The epidermal barrier of the dorsal ear pinnae was disrupted by mild tape stripping. A small piece of surgical tape (Transpore surgical tape) was manually applied to the skin and removed, repeated 5 consecutive rounds using a fresh piece of tape for each round. Then, 10^7 CFU C. accolens or 30 μM iE-DAP in 50% glycerol was applied to one pinna and 50% glycerol was applied to contralateral pinna. After 3 h mice were euthanized, and pinnae were processed as described above.

[4] = test system: primary human foreskin keratinocytes; experiment: Propidium Iodide (PI) uptake assay in primary human foreskin keratinocytes; assay type: cell-based; conditions: indicated iE-DAP doses, standard tissue culture
[5] = test system: HSE dermal fibroblasts (CXCL8); experiment: CXCL8 induction in Human Skin Equivalents (HSE) skin organoids; assay type: cell-based; conditions: HSE epidermis treated with 30 μM iE-DAP for 24 h
[6] = test system: primary dermal fibroblasts; experiment: CXCL1 (KC) ELISA from primary dermal fibroblasts; assay type: cell-based, mouse; conditions: iE-DAP 30 μM or IL-1α 10 ng/ml, 24 hrs
Protocol: Mouse dermal fibroblasts were isolated as described herein. In brief, mouse pinnae were incubated on a table shaker (200 rpm) in a collagenase D-pronase solution [2.5 mg/ml collagenase-D (Sigma), 20 mg/ml pronase (Sigma) diluted in 1M Tris, pH 8.0 and containing 1 μM EDTA (Sigma)] for 90 min at 37° C. Fibroblasts were then isolated by pressing digested skin through a 70 μm cell strainer, and cells were collected and cultured in RPMI 1640 medium with 10% FBS, 50 μM 2-mercaptoethanol, 100 μM asparagine, 2 mM glutamine, 1% penicillin-streptomycin for 2-4 passages before stimulating with immune elicitors, and/or harvesting media or cells.
For cytokine ELISAs from dermal fibroblast, cells were challenged with IL-1α (10 ng/ml) or 30 μM iE-DAP for 24 h, and media was collected and processed for ELISA as described above.

## NC(CCCC(NC(=O)CC[C@@H](N)C(=O)O)C(=O)O)C(=O)O (stereo in doubt) [iE-DAP, γ-D-Glu-mDAP]
[1]; 30 μM iE DAP, 24 h
  IL-1α release by keratinocytes: released IL-1α
[1]; 30 μM iE-DAP, 24 hrs
  induction of TNF, IL-6, IL-1β and IL-17 in keratinocytes: not induced
Slc46a2
  effect on cytosolic accumulation / cellular uptake of click-iE-DAP: interfered
[2]; intradermal 10 μl, LPS 10 μg/ml, 1 to 24 h
  neutrophil / leukocyte recruitment to the skin in WT mice: recruited inflammatory cells
[2]; intradermal, 3 h, Tri-DAP 25 μM, C12-iE-DAP 20 μM, MDP 10 μM
  neutrophil recruitment response in Slc46a2-deficient mice compared to WT: failed to respond; also recorded: significantly reduced
[3]
  neutrophil recruitment response in Slc46a2−/− mice: did not respond
  neutrophil recruitment response in Slc46a3−/− mice: responding normally
Tape stripped mouse skin
  neutrophil recruitment response of WT skin: responded
[4]
  membrane permeabilization of primary human keratinocytes (PI uptake): failed to induce; also recorded: did not induce cell permeabilization
[5]
  CXCL8 in HSE dermal fibroblasts: induction of CXCL8; also recorded: High expression of CXCL8
[6]
  CXCL1 (KC) response of primary dermal fibroblasts: did not respond; also recorded: unresponsive
